Measurements from publication PMC6916019, “In vitro anti-malarial efficacy of chalcones: cytotoxicity profile, mechanism of action and their effect on erythrocytes” (Malaria Journal, 2019).
Converted amounts (≈) assume the structure as drawn.

Key:
[1] = MTT cytotoxicity / cell viability assay; conditions: human, HeLa cells
Procedure: (§5) Cytotoxicity of the compounds on mammalian cells were accomplished employing HeLa cell line (NCCS, Pune) cultured in DMEM supplemented with 10% FBS by the MTT (3-(4,5-dimethylthiazol-2-yl)-2,5-diphenyltetrazolium bromide) microenzymatic method with certain modifications [32]. Briefly, cells (10^4 cells/200 μL/well) were seeded into 96-well flat-bottom sterile tissue culture plates in complete medium. After 24 h of seeding, the test compounds at different dilutions were added and kept for another 24 h in a humidified chamber with 5% CO2 at 37 °C. Twenty microlitres of MTT (5.00 mg/mL in 1XPBS) stock solution were pipetted into each well, mixed and incubated for at least 3–4 h. After incubation, the plates were centrifuged at 1500 rpm for 5 min. The supernatant was disposed cautiously and 100 μL of DMSO were added to each well to lyse the cell and dissolve the insoluble purple formazan product into a coloured solution. Absorbance was taken at 570 nm to determine formazan formation as a measurement of cell viability. Experiments were performed in triplicate.

[2] = system: P. falciparum chloroquine resistant strain (RKL-9); assay: WHO Mark III schizont maturation inhibition assay, chloroquine resistant strain; type: cell-based, Plasmodium falciparum; conditions: for Selective index (SI) P.falciparum chloroquine^R (RKL-9): SI = CC50 (HeLa)/IC50 (RKL-9); for % Schizont maturation inhibition ± SD (RKL-9): Conc. = 6.25 μg/mL; for Resistance Index (RI) IC50 (RKL-9)/IC50 (MRC-2): ratio of IC50 resistant / sensitive strain; for P. falciparum Chloroquine^R Strain (RKL-9) IC50 / P. falciparum Chloroquine^R Strain (RKL-9) IC90: schizont maturation, ring stage
Procedure: (§1) These strains were perpetuated in vitro in continuous culture according to the method of Trager and Jensen with slight modifications. Briefly, both sensitive and resistant strains of P. falciparum were maintained in A+ erythrocytes in RPMI-1640 medium (having glutamine, but without any sodium bicarbonate) comprising 1.00 g of dextrose, 5.94 g of HEPES buffer, 40.00 mg of gentamycin. Additionally supplemented with 5% sodium bicarbonate and 10% (v/v) inactivated human AB+ serum then incubated in gas mixture of 5% CO2, 5% O2 and 90% N2 at 37 °C. Parasitized erythrocytes at initial 5% haematocrit were suspended in above mentioned culture medium and parasitaemia was regularly checked to maintain level between 2 and 4% with further sub-culturing for parasitaemia beyond 5%. Growth and multiplication of parasite was monitored by microscopy using Giemsa-stained slides.
(§2) To obtain ring stages of the parasite, the cultures were synchronized using D-sorbitol. The cultures, with majority of ring stages, were treated with equal volume of aqueous 5% D-sorbitol for 5 min and then after centrifugation pellet were suspended in complete medium and fresh erythrocytes synchronized culture with 1% parasitaemia and 5% haematocrit were used for compound concentration response assay.
(§3) The concentration of each test compound needed to hinder multiplication of parasites by 50% (IC50) against P. falciparum strains were obtained through concentration response assay performed in 96-well sterile tissue culture plates. Synchronized parasite cultures were applied to different doses of each compound. Dilutions were performed in gentamycin-free culture medium, and incubated at 37 °C having gaseous mixture (5% CO2, 5% O2 and 90% N2) supply for 24 h. The results were expressed as IC50 values computed from HN-NonLin Regression analysis, as well as mean percentage inhibition ± standard error examined by thick smear Giemsa stained slides. %ParasiteInhibition29,30=100-TotalnumberofSchizontsintestwells/TotalnumberofSchizontsincontrolwell∗100
(§4) Parasite at ring stage was used for compound concentration response assay with parasitaemia of 1% at 5% haematocrit. […] The IC50 and IC90 values of all compounds were determined and the resistance index between the two sensitive and resistant strains was calculated (Table 2). […] The percentage inhibition in schizont maturation was also calculated after incubation of ring stage P. falciparum till 24 h at the same range of drug concentrations (Table 3).

[3] = system: P. falciparum chloroquine sensitive strain (MRC-2); assay: microbe, parasite or virus in culture; conditions: for % Schizont maturation inhibition ± SD (MRC-2): Conc. = 6.25 μg/mL; for % Schizont maturation inhibition ± SD (MRC-2) / P. falciparum Chloroquine^s Strain (MRC-2) IC50 / P. falciparum Chloroquine^s Strain (MRC-2) IC90: 24 h; for Selective index (SI) P.falciparum chloroquine^s (MRC-2): SI = CC50 (HeLa)/IC50 (MRC-2); for P. falciparum Chloroquine^s Strain (MRC-2) IC50 / P. falciparum Chloroquine^s Strain (MRC-2) IC90: schizont maturation, ring stage
Procedure: as §1, §2, §3, §4

[4] = system: haemozoin (β-haematin) production in P. falciparum cultures; assay: Haemozoin inhibition assay in P. falciparum cultures; type: cell-based, Plasmodium falciparum; conditions: drug near IC50 concentration, 48 h; untreated control 547.61 ± 9.52
Procedure: Briefly, the test cultures were centrifuged for 5–10 min at 1300 rpm to dispose of the culture medium. Infected erythrocyte pellet (mingled of β-haematin and erythrocyte membrane) were exposed to 0.01% saponin lysis for 10 min at 25 °C to lyse erythrocyte to release parasites. […] The haemozoin content was quantified by taking the absorbance at 400 nm and using a standard curve prepared from β-haematin. The amount of haemozoin formed in relation to control was calculated. All assays were performed in triplicate.

Procedure for HeLa cell line: as §5
Procedure for in vitro: Briefly, fresh erythrocytes were centrifuged for 5 min at 1600 rpm for at least thrice in PBS and then the remaining pellet was re-suspended in PBS at 2% hematocrit. One hundred microlitres of this suspended pellet was added to 96-well sterile culture plate having test compounds at different desired concentrations. PBS alone (for baseline values) and 0.4% Triton X-100 in PBS (for 100% haemolysis) were employed as controls. After keeping at 37 °C for 3 h, the test samples were centrifuged and the supernatant was used for determination of the haemolytic activity quantified in terms of haemoglobin release as monitored spectrophotometrically by taking absorbance at 415 nm [33]. The experiment was done in triplicate and the mean ± SD was calculated [33, 34]. %Haemolysis=[Absorbanceofsample415nm-Absorbanceofblanksample415nm/Absorbanceofpositivecontrol415nm]∗100

Row | IC50 ([2]; Plasmodium falciparum, read-out: P. falciparum Chloroquine^R Strain (RKL-9) IC50, artemisinin, unit ng/mL) [ng/mL] | IC90 ([2]; Plasmodium falciparum, read-out: P. falciparum Chloroquine^R Strain (RKL-9) IC90, artemisinin, unit ng/mL) [ng/mL] | Compound | CC50 at 24 h [1] [µg/mL] | viability at 24 h, 12.5 ng/mL [1] [%] | hemolysis at 3 h, 12.5 ng/mL (in vitro) [%] | inhibition at 0.00625 µg/mL ([2]; Plasmodium falciparum, artemisinin, Conc. = 6.25 ng/mL, 24 h, read-out: % Schizont maturation inhibition ± SD (RKL-9)) [%] | Selective index (SI) P.falciparum chloroquine^R (RKL-9) [2] | HeLa Cell CC50 (HeLa cell line) [µg/mL] | % Schizont maturation inhibition ± SD (RKL-9) ([2]; 24 h) [%] | Resistance Index (RI) IC50 (RKL-9)/IC50 (MRC-2) [2] | P. falciparum Chloroquine^R Strain (RKL-9) IC50 ([2]; 24 h) [µg/mL] | P. falciparum Chloroquine^R Strain (RKL-9) IC90 ([2]; 24 h) [µg/mL] | % Schizont maturation inhibition ± SD (MRC-2) [3] [%] | Selective index (SI) P.falciparum chloroquine^s (MRC-2) [3] | P. falciparum Chloroquine^s Strain (MRC-2) IC50 [3] [µg/mL] | P. falciparum Chloroquine^s Strain (MRC-2) IC90 [3] [µg/mL] | Amount of haemozoin production [4] [ng/mL]
1 | 0.15 (≈ 0.531 nM) | 0.15 (≈ 0.531 nM) | C[C@@H]1CC[C@H]2[C@@H](C)C(=O)O[C@@H]3O[C@@]4(C)CC[C@@H]1[C@]32OO4 [ART, artemisinin, reference compound] | 0.0491 (≈ 174 nM) | 58.92 ± 0.06 | 1.94 ± 0.026 | 87.9 ± 2.12 | 327.4 |  |  |  |  |  |  |  |  |  | 
2 |  |  | COc1cc(OC)c(C(=O)/C=C/c2ccc(OC)c(OC)c2)c(OC)c1 [Chalcone 1] |  |  |  |  | 18.96 | 4.36 | 49.66 ± 25.46 | 0.68 | 0.23 | 1.42 | 82.43 ± 20.51 | 12.82 | 0.34 | 5.54 | 
3 |  |  | COc1ccc(C=CC(=O)c2cc(OC)ccc2OC)cc1 [Chalcone 2] |  |  |  |  | 7.57 | 1.06 | 58.02 ± 21.21 | 1.08 | 0.14 | 0.36 | 71.76 ± 10.61 | 8.15 | 0.13 | 0.51 | 464.28 ± 11.9
4 |  |  | COc1ccc(OC)c(C(=O)C=Cc2ccc3c(c2)OCO3)c1 [Chalcone 3] |  |  |  |  | 26.86 | 7.79 | 63.71 ± 2.83 | 1.71 | 0.29 | 1.15 | 59.26 ± 4.95 | 45.82 | 0.17 | 0.75 | 
5 |  |  | COc1cc(C(=O)C=Cc2ccc(F)cc2)cc(OC)c1OC [Chalcone 4] |  |  |  |  | 1.65 | 0.84 | 57.69 ± 7.78 | 3.40 | 0.51 | 2.26 | 47.48 ± 17.68 | 5.60 | 0.15 | 0.40 | 
6 |  |  | COc1cc(C(=O)C=Cc2ccc(N(C)C)cc2)cc(OC)c1OC [Chalcone 5] |  |  |  |  | 36.74 | 8.45 | 40 ± 20.51 | 1.43 | 0.23 | 0.92 | 58.65 ± 7.78 | 52.81 | 0.16 | 1.08 | 
